In the NIST ThermoML archive (doi:10.1021/acs.jced.8b00662):

Test: xn = mol fraction of the nth substance listed
Conditions: 100 kPa, Liquid; for viscosity: Falling or rolling sphere viscometry; for mass density: Vibrating tube method

CC(C)C1CCCCC1 [(1-methylethyl)cyclohexane] + c1ccc2c(c1)CCCC2
Conditions | mass density [kg/m3] | viscosity [mPa·s]
293.15 K, x2 = 0 | 802.14 | 1.093
293.15 K, x2 = 0.0995 | 816.67 | 1.129
293.15 K, x2 = 0.1995 | 831.75 | 1.195
293.15 K, x2 = 0.299 | 847.23 | 1.258
293.15 K, x2 = 0.4004 | 863.44 | 1.334
293.15 K, x2 = 0.5006 | 879.87 | 1.436
293.15 K, x2 = 0.5995 | 896.5 | 1.543
293.15 K, x2 = 0.7015 | 914.1 | 1.671
293.15 K, x2 = 0.7991 | 931.39 | 1.823
293.15 K, x2 = 0.9006 | 949.99 | 2.008
298.15 K, x2 = 0 | 798.24 | 1.016
298.15 K, x2 = 0.0995 | 812.77 | 1.053
298.15 K, x2 = 0.1995 | 827.85 | 1.108
298.15 K, x2 = 0.299 | 843.32 | 1.165
298.15 K, x2 = 0.4004 | 859.53 | 1.233
298.15 K, x2 = 0.5006 | 875.96 | 1.324
298.15 K, x2 = 0.5995 | 892.57 | 1.416
298.15 K, x2 = 0.7015 | 910.16 | 1.531
298.15 K, x2 = 0.7991 | 927.44 | 1.662
298.15 K, x2 = 0.9006 | 946.04 | 1.824
303.15 K, x2 = 0 | 794.34 | 0.947
303.15 K, x2 = 0.0995 | 808.86 | 0.98
303.15 K, x2 = 0.1995 | 823.93 | 1.03
303.15 K, x2 = 0.299 | 839.4 | 1.08
303.15 K, x2 = 0.4004 | 855.61 | 1.143
303.15 K, x2 = 0.5006 | 872.03 | 1.225
303.15 K, x2 = 0.5995 | 888.63 | 1.305
303.15 K, x2 = 0.7015 | 906.22 | 1.407
303.15 K, x2 = 0.7991 | 923.49 | 1.521
303.15 K, x2 = 0.9006 | 942.08 | 1.667
308.15 K, x2 = 0 | 790.43 | 0.886
308.15 K, x2 = 0.0995 | 804.95 | 0.916
308.15 K, x2 = 0.1995 | 820.02 | 0.961
308.15 K, x2 = 0.299 | 835.48 | 1.007
308.15 K, x2 = 0.4004 | 851.68 | 1.064
308.15 K, x2 = 0.5006 | 868.1 | 1.137
308.15 K, x2 = 0.5995 | 884.69 | 1.208
308.15 K, x2 = 0.7015 | 902.28 | 1.3
308.15 K, x2 = 0.7991 | 919.54 | 1.404
308.15 K, x2 = 0.9006 | 938.12 | 1.532
313.15 K, x2 = 0 | 786.51 | 0.831
313.15 K, x2 = 0.0995 | 801.03 | 0.859
313.15 K, x2 = 0.1995 | 816.1 | 0.9
313.15 K, x2 = 0.299 | 831.55 | 0.942
313.15 K, x2 = 0.4004 | 847.75 | 0.994
313.15 K, x2 = 0.5006 | 864.17 | 1.06
313.15 K, x2 = 0.5995 | 880.76 | 1.124
313.15 K, x2 = 0.7015 | 898.34 | 1.207
313.15 K, x2 = 0.7991 | 915.59 | 1.3
313.15 K, x2 = 0.9006 | 934.17 | 1.413
318.15 K, x2 = 0 | – | 0.782
318.15 K, x2 = 0.0995 | – | 0.798
318.15 K, x2 = 0.1995 | – | 0.837
318.15 K, x2 = 0.299 | – | 0.876
318.15 K, x2 = 0.4004 | – | 0.925
318.15 K, x2 = 0.5006 | – | 0.986
318.15 K, x2 = 0.5995 | – | 1.045
318.15 K, x2 = 0.7015 | – | 1.121
318.15 K, x2 = 0.7991 | – | 1.206
318.15 K, x2 = 0.9006 | – | 1.309
